{"source": "patent US7772230B2", "about": "“Chroman compound, processes for its preparation, and its pharmaceutical use” (China Pharmaceutical University, priority 2006, dated 2010)", "key": {"[1]": {"target": "T1, slowly delayed rectifier potassium channel current (IKs) (Cavia porcellus, UniProt O70344)", "T1 construct": "the Guinea pig myocardial cells are separated with enzymolysis; endogenous in cells; host or cells: freshly isolated guinea pig ventricular myocytes", "T1 sequence (O70344 1-671)": "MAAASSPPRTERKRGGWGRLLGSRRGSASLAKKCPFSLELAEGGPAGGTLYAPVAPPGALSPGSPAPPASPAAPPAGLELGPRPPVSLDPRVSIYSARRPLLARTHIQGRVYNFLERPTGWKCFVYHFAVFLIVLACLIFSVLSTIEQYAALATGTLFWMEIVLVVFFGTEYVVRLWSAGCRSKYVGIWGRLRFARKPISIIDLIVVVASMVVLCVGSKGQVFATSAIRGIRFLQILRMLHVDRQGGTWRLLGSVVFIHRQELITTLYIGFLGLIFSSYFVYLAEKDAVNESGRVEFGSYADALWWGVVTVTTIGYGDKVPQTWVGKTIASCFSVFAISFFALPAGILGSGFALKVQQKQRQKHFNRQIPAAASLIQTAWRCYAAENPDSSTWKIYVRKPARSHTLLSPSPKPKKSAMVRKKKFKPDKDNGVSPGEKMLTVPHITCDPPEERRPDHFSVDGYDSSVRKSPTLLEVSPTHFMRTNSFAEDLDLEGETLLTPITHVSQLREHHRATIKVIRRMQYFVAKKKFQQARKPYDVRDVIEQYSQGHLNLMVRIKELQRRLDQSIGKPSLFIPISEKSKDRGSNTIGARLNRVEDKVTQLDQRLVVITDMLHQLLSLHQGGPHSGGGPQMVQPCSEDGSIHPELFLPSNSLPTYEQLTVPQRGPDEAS", "T1 sequence (P41686 1-245 partner)": "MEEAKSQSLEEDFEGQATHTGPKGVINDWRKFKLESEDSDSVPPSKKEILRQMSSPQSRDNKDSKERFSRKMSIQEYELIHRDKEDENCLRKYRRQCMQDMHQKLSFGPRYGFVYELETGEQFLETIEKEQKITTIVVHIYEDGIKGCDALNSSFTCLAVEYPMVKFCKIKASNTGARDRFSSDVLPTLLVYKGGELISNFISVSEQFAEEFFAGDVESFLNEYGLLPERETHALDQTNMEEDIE", "test": "whole cell patch clamp on isolated Guinea pig myocardial cells, IKs", "assay_type": "cell-based", "details": "Guinea pig ventricular myocytes, current recorded 10 min after administration, 25-30° C.", "protocol": "(§1) Experimental title: using vitro pachynsis myocardial cells of Guinea pig, the activity is determined by the whole cell membrane Patch clamp technology.\n(§2) experimental mechanism: the Guinea pig myocardial cells are separated with enzymolysis, and the rapid activation component and the slowly activation component of the delayed commutating current in the cardiac muscle cells are recorded by whole cell membrane Patch clamp. Each compound is added to the perfuse liquid for measuring current after dissolved at least 10 min. The collected data is analyzed in pulse-fit, the IC50 value for IKr and IKs of each compound is calculated.\n(§3) animals: Guinea pigs, male, weight 300-400 g.\n(§4) solution: calcium free Tyrode's solution\n(§5) pole inner solution (mmol/L): KCl 140, MgCl2 1.0, K2-ATP 4.0, EGTA 10, HEPES 5.0, pH=7.2\n(§6) Experimental apparatus: Patch clamp magnifier (EPC-10, Germany), inverted microscope (TE-2000U, Nikon, Japan), microelectrode puller (PIP5, Germany), micro-manipulator (PCS-5000, Burleigh, USA).\n(§7) Then, the hearts are taken off, their ventricle are cut to smash and incubated in fresh enzyme solution at 37° C., the solution is gently stirred for 5-10 min, pouring off the supernatant fluid, diluted with Tyrode's solution containing CaCl2 1 mmol/L, that is for the first cell stored liquor; with the same operation to obtain the second and the third cell storages. […] The cells are laid for 2 h before use.\n(§8) the cell liquor is put into the cell pool, after the cells adhering to the wall, they are perfused with outer liquor of the cells at the rate of 2 ml/min, cells that having calcium resistance and clear transverse striations are to be selected, the poles are moved to the cell surface by tridimensional manipulator. The high resistance block are formed between the pole top and the cell surface by under pressure, and more over using reduced pressure to broking cell membrane, the pole inner liquor can be connected to the cell inner liquor so as to form the whole cell state. After the compensation to the capacitance and series impedance compensation the voltage tongs are recorded. The signal is led by Ag/AgCl pole and magnified by the Patch clamp magnifier, the computer dispenses presetting stimulate pulse by procedure and add to cells, and the electrical signal generated from cells is translated by transducer, and stored in computer. All of the stimulate signal control, electric current, data sampling and analyses are carried out by pulse V8.60. Azimilide is used as positive drugs in the research. Each test compound is dissolved in anhydrous ethanol, diluted to the same concentration by water, and added to outer cell liquor, the top concentration of ethanol is 0.1%.\n(§9) Stimulate parameter: the record of IKr and IKS: the back value of the either current is recorded. Using extra-cellular fluid containing 0.1 mmol/L CdCl2 for perfusion, sustaining the voltage at −50 mV, depolarized to 60 mV, keeping for 500 ms, and sustaining the voltage at −50 mV, keeping for 1000 ms, recording IKr; and then binding the voltage at −50 mV for 1000 ms, recording IKs."}, "[2]": {"target": "T2, rapidly delayed rectifier potassium channel current (IKr) (Cavia porcellus, UniProt O08703)", "T2 construct": "the Guinea pig myocardial cells are separated with enzymolysis; endogenous in cells; host or cells: freshly isolated guinea pig ventricular myocytes", "T2 sequence (O08703 1-1294)": "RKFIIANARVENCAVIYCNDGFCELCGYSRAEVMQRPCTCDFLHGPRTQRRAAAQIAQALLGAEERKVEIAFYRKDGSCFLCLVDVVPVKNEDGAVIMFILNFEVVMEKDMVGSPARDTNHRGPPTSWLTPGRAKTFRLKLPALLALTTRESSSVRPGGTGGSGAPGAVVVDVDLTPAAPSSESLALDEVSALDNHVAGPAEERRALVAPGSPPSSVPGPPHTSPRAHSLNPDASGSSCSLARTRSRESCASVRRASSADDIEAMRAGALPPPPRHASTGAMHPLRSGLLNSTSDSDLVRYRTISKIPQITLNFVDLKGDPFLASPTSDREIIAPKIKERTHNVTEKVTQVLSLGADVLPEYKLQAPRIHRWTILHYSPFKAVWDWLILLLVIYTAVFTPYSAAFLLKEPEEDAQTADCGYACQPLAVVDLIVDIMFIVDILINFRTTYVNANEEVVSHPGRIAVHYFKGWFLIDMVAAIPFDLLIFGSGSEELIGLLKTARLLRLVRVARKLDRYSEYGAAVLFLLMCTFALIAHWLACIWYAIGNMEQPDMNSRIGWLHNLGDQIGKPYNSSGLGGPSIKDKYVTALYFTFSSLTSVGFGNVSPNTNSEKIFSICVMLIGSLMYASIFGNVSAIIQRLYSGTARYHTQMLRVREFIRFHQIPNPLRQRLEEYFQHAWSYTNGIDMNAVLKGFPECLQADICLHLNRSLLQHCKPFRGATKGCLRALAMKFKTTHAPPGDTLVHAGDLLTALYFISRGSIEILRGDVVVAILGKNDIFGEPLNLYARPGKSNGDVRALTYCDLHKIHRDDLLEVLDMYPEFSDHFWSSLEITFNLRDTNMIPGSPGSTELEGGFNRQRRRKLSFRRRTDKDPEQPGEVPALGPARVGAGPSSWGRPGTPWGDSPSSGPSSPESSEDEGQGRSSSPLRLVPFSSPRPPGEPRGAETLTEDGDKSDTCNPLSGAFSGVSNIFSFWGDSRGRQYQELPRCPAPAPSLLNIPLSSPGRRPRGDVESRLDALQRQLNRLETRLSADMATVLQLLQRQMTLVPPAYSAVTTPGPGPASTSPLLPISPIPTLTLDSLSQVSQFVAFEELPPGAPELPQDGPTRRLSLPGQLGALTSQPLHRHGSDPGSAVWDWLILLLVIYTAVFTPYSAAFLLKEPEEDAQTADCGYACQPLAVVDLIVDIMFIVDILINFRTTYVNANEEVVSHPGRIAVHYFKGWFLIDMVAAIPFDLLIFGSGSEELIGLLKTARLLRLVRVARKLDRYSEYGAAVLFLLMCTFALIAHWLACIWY", "test": "whole cell patch clamp on isolated Guinea pig myocardial cells, IKr", "assay_type": "cell-based", "details": "Guinea pig ventricular myocytes, current recorded 10 min after administration, 25-30° C.", "protocol": "as §1, §2, §3, §4, §5, §6, §7, §8, §9"}}, "data": [{"smiles": "CCCCOc1ccc2c(c1)/C(=N/N1CC(=O)N(CCCCN3CCN(C)CC3)C1=O)CCO2.O=C(O)/C=C/C(=O)O", "note": "[Ib example 4, 1-[4-(2,3-dihydro-6-butoxy)benzopyran]imino-3-[4-(methyl-1-piperazine)butyl]-2,4-imidazole dione difumarate]", "values": [{"measurement": "melting point", "result": "208 to 210", "unit": "°C"}, {"measurement": "IC50", "setting": "[1]", "result": 22, "unit": "nM"}, {"measurement": "IC50", "setting": "[2]", "result": 180, "unit": "nM"}]}, {"smiles": "CCCOc1ccc2c(c1)/C(=N/N1CC(=O)N(CCCCN3CCN(C)CC3)C1=O)CCO2.O=C(O)/C=C/C(=O)O", "note": "[Ib example 3, 1-[4-(2,3-dihydro-6-propoxy-)benzopyran]imino-3-[4-(methyl-1-piperazine)butyl]-2,4-imidazole dione difumarate]", "values": [{"measurement": "melting point", "result": "218 to 220", "unit": "°C"}, {"measurement": "IC50", "setting": "[1]", "result": 1280, "unit": "nM"}, {"measurement": "IC50", "setting": "[2]", "result": 11800, "unit": "nM"}]}]}
